Where a SMILES comes first, the peptide text is derived from it. The star is where a group is joined. Cbz = O=C(OCc1ccccc1)*; CH2F = FC*
Key:
[1] = target: T1, M-Calpain activity in HT-29 cells (Homo sapiens, UniProt P17655); test: Calpain Activity Assay Kit (BioVision), HT-29; format: cell-based; details: HT-29, vs DMSO, 1 hour
T1 construct: endogenous in cells; host or cells: HT-29 human colorectal cancer cells
T1 sequence (P17655 20-700 limits assumed): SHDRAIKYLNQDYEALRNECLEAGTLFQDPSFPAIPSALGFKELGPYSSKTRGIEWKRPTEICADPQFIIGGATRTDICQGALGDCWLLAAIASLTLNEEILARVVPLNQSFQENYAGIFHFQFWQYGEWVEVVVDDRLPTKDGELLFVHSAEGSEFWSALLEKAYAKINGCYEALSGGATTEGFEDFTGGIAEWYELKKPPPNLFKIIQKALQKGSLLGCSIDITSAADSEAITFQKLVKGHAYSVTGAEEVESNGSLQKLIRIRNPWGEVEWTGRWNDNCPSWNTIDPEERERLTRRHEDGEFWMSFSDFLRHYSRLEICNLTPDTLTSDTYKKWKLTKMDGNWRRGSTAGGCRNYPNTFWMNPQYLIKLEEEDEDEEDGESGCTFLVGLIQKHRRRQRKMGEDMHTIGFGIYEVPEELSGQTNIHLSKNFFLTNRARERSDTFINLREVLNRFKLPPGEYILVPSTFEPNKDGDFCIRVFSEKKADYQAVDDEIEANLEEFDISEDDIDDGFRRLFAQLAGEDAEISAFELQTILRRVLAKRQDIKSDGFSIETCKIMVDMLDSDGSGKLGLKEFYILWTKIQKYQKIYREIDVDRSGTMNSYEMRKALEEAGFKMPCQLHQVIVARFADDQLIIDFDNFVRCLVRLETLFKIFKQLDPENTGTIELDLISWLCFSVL
T1 sequence (P04632 1-268 partner): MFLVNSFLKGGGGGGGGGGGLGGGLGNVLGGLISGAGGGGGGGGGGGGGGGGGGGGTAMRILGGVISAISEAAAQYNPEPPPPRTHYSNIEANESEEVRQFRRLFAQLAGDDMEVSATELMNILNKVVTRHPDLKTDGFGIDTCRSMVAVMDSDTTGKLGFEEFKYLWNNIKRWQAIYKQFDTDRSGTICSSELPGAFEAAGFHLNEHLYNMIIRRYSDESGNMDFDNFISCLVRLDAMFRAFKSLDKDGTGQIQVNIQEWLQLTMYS
Protocol: (§1) Bone marrow derived macrophages (BMDM) were prepared as previously described by methods known to those skilled in the art. On day 5 of culture, 2×10^6 BMDM were seeded in 6-well plates and the following day were primed for 18 h with TNFα (20 ng/mL), followed by 1 h stimulation with E. faecalis (1 μg/mL; ATCC). Stimulation with E. faecalis was conducted in the presence of the zLLY-CH2F calpain-2 inhibitor (20 μg/mL) or DMSO as a control. Media was removed from treated BMDM, centrifuged at 300×g for 5 min and supernatent analyzed using the Cytometric Bead Array Mouse Inflammation Kit (BD Biosciences, San Jose, Calif.). Cytokine data were analyzed using Flowjo software (Ashland, Oreg.) and GraphPad Prism version 4.0 (GraphPad, La Jolla, Calif.). Cell pellets were lysed and analyzed for IκB and NFκB by Western blot as previously described (Miyazaki, T. et al. Journal of Atherosclerosis and Thrombosis 20, 228-237, 2013). […] Each day 4 wells were quantified using Celltiter MTS reagent (Promega) and the resulting signal was used to generate a proliferation curve. Calpain activity was measured using a Calpain activity assay kit (BioVision, Inc., Milpitas, Calif.) as previously described. Colons were harvested on day 4 and calpain activity measured. […]

[2] = system: HT-29 human colorectal cancer cells; test: proliferation assay (MTS), HT-29; format: cell-based; details: HT-29, 20 μg/ml, vs DMSO
Protocol: as §1

[3] = system: IκB / NFκB in CT-26 WT cells; test: IκB and nuclear NFκB western blot, CT-26.WT; format: cell-based, mouse; details: vs DMSO

M-Calpain activity [1]: reduced
SMILES: CC(C)C[C@H](NC(=O)OCc1ccccc1)C(=O)N[C@@H](CC(C)C)C(=O)N[C@@H](Cc1ccc(O)cc1)C(=O)CF [zLLY-CH2F, Z-LLY-CH2F] (Cbz-Leu-Leu-Tyr-CH2F)
proliferation [2]: reduction
IκB degradation [3]: reduced
NFκB nuclear localization [3]: reduced

From patent publication US20160279187A1, “CALPAIN INHIBITORS FOR IBD AND COLORECTAL CANCER TREATMENT” (UNIVERSITY OF HAWAII, priority 2013, published 2016)
